The values below come from patent publication US11841369B2, “Method for improving quality of therapeutic cell through real-time glutathione measurement” (CELL2IN, INC., priority 2017, dated 2023).

Assay [1] has as its system hUC-MSCs. Description: Mitochondrial GSH (mGSH) distribution after RSL3, MitoFreSH-Tracer, flow cytometry and confocal imaging. The assay is classed as cell-based, human. Here is the method:
After the cultured human umbilical cord-derived mesenchymal stem cells (hUC-MSCs) at passage 4, 7 or 15 were treated with various concentrations of RSL3 and stained with MitoFreSH, the distribution pattern of mitochondrial GSH (mGSH) in the cells was confirmed by histograms using flow cytometry and confocal imaging.
hUC-MSCs at passage 4, 7 or 15 were prepared, seeded at 70000 cells/well in a 6-well cell culture plate, and cultured at 37° C. for 24 hours. The medium used in the culture was prepared by adding 10% fetal bovine serum and 1× penicillin-streptomycin to α-MEM. […] The cells detached from the plate were transferred to an FACS tube and stored on ice, and a fluorescence level was measured using a flow cytometer.
hUC-MSCs at passage 4, 7 or 15 were prepared, seeded at 7000 cells/100 μl per well in a 96-well cell culture plate, and cultured at 37° C. for 24 hours. […] To remove MitoFreSH-Tracer from the medium before measurement, the medium was exchanged with fresh 10 mM HEPES-containing HBSS, and fluorescence images were measured using a confocal imaging system, Operetta.
A F510/F580 ratio referring to a GSH mean value in cells was calculated by measuring fluorescence values of F510 (fluorescence value when MitoFreSH-Tracer was bound with SH) and F580 (fluorescence value of MitoFreSH-Tracer, which was not bound with SH) in cells and dividing the F510 value by the F580 value. […]

Another assay concerns human dermal fibroblasts. As to the kind of experiment: mGSH distribution after RSL3 in human dermal fibroblasts, confocal imaging. The assay is classed as cell-based. The note with it: as the subculture continued. Here is the method:
As described in the experiment for MSCs, human dermal fibroblasts subcultured several times were treated with RSL3 and the cells were stained with MitoFreSH-Tracer, and a ratio between cells maintaining mGSH and cells not maintaining mGSH was represented as a percentage through confocal imaging.

Assay [2] relates to hUC-MSCs. Description: CD146 surface expression in mGSH^High and mGSH^Low cells after RSL3, flow cytometry. The assay is classed as cell-based, human. To be noted: P4 hUC-MSC, compared with mGSH level-maintaining group. An excerpt: To confirm whether the stem cell function of cells in which an mGSH level decreased is deteriorated under lipid oxidative stress caused by RSL3 treatment, an expression level of CD146, which is a cell surface protein known to be highly expressed in stem cells of high quality according to conventional literature, was confirmed through flow cytometry.
The cells were stained by the same method as a method of measuring a mitochondria GSH level through the flow cytometry as described above, and detached from the plate using trypsin. The detached cells were treated with an antibody for flow cytometry with respect to CD146 to which a fluorescent material BUV395 was bound at 4° C. for 30 minutes, and washed with PBS. Using a flow cytometer, F510 and F580 fluorescence values for measuring a GSH level and a BUV395 fluorescence value for measuring CD146 expression were measured. Afterward, based on the point at which the histogram showing the F510/F580 distribution was divided into two peaks, the cells were divided into GSH^High cells (right peak) and GSH^Low cells (left peak) using FlowJo software, and a CD146-positive ratio of the corresponding cells is represented as a percentage (%).

Assay [3] has as its system hUC-MSCs. As to the kind of experiment: CFU-F assay of hUC-MSCs. The assay is classed as cell-based, human. The note with it: ferrostatin-1 0.2, 1, 2, 4 μM or liproxstatin-1 0.1, 0.5, 1, 2 μM, 24 hours. The method, then:
The inventors observed an effect of the material on stem cells by treating each stem cells with a material for enhancing a glutathione evaluation parameter. When hUC-MSCs were subcultured in a L-AA2G-containing medium, CFU-F, migration capacity, and an anti-inflammatory effect were observed. A CFU-F assay (n=3) was performed by treating hUC-MSCs with 125 or 250 μg/mL of AA2G for three days. As shown in FIGS. 16A and 16B, it was confirmed that, when AA2G was treated, CFU-F increased. In addition, as hUC-MSCs were treated with 125 or 250 μg/mL of AA2G for three days, PDGF-AA-induced migration capacity (n=3) was analyzed. As shown in FIGS. 17A and 17B, it was confirmed that the migration capacity was increased by AA2G treatment. In addition, the reduction in T cell proliferation, a reduction in T cell differentiation, and the promotion of Treg cell differentiation were observed by treating hUC-MSCs with 125 or 250 μg/mL of AA2G for three days. […] Meanwhile, hUC-MSCs were cultured with a glutathione precursor such as γ-glutamyl cysteine (GGC, 0.1, 0.25, and 0.5 mM). A CFU-F assay (n=3) was performed by treating hUC-MSCs with each concentration of GGC for 2 hours. […] In addition, SDF1α and PDGF-AA-induced migration capacities (n=3) were analyzed for hUC-MSCs without treatment with GGC, and SDF1α- and PDGF-AA-induced migration abilities (n=3) were analyzed by treating hUC-MSCs with the increasing concentrations of GGC. STI571 was used as a PDGFR kinase inhibitor. As shown in FIGS. 20A to 20C, it was confirmed that, according to an increase in GGC treatment concentration, SDF1α- and PDGF-AA-induced migration capacities were enhanced. A CFU-F assay (n=3) was performed by treating hUC-MSCs with 0.2, 1, 2, and 4 μM ferrostatin-1 and 0.1, 0.5, 1, and 2 μM liproxstatin-1 for 24 hours.

For another assay, the system named is T cells. Description: Anti-inflammatory effect of treated hUC-MSCs: T cell proliferation, T cell differentiation, Treg cell differentiation. The format is cell-based. The method, then:
The inventors observed an effect of the material on stem cells by treating each stem cells with a material for enhancing a glutathione evaluation parameter. When hUC-MSCs were subcultured in a L-AA2G-containing medium, CFU-F, migration capacity, and an anti-inflammatory effect were observed. A CFU-F assay (n=3) was performed by treating hUC-MSCs with 125 or 250 μg/mL of AA2G for three days. As shown in FIGS. 16A and 16B, it was confirmed that, when AA2G was treated, CFU-F increased. In addition, as hUC-MSCs were treated with 125 or 250 μg/mL of AA2G for three days, PDGF-AA-induced migration capacity (n=3) was analyzed. As shown in FIGS. 17A and 17B, it was confirmed that the migration capacity was increased by AA2G treatment. In addition, the reduction in T cell proliferation, a reduction in T cell differentiation, and the promotion of Treg cell differentiation were observed by treating hUC-MSCs with 125 or 250 μg/mL of AA2G for three days.
In addition, hUC-MSCs were cultured with ferrostatin-1 (0.2, 1, 2 and 4 μM) and liproxstatin-1 (0.1, 0.5, 1 and 2 μM), which control a glutathione level in cells by inhibiting lipid oxidation. […] Meanwhile, the hUC-MSCs were treated with 1 μM ferrostatin-1 for 24 hours, 0.2 mM GGC for 2 hours, and 2 mM GSH-EE for 2 hours. As a result, the reduction in T cell proliferation ability and the reduction in T cell differentiation capacity were observed, and promotion of Treg cell differentiation was observed.

The mark [4] stands for this setting: hUC-MSCs treated with 1 μM ferrostatin-1 24 h, 0.2 mM GGC 2 h or 2 mM GSH-EE 2 h.

Turning to `COC(=O)c1ccc([C@@H]2c3[nH]c4ccccc4c3C[C@@H](C(=O)OC)N2C(=O)CCl)cc1` [RSL3, 1S,3R-RAS-selective lethal 3], in the assay on hUC-MSCs [1] (hUC-MSCs passage 4, 7 or 15, RSL3 0.1/0.5/1 μM, dependent on RSL3 concentration and passage number), the mGSH levels entry was “reduced”. In the assay on human dermal fibroblasts, the “proportion of cells in which mGSH decreases by treatment with RSL3” value is recorded as “increased”. Further, the “lowering of CD146-positive ratio in group in which mGSH level is lowered by RSL3” value in the assay on hUC-MSCs [2] was “approximately 25%”.
On to `CCOC(=O)c1ccc(NC2CCCCC2)c(N)c1` [ferrostatin-1], for which the CFU-F result with hUC-MSCs [3] was “improved”. For the same compound, the “anti-inflammatory effect of the hUC-MSCs” value with T cells (ferrostatin-1 or liproxstatin-1 treatment (FIGS. 27, 28A to 28C)) is on record as “did not alter”. Further, in the assay on T cells (setting [4]), the “T cell differentiation capacity” value is recorded as “reduction”, the “T cell proliferation ability” value is on record as “reduction” and the Treg cell differentiation entry is “promotion”. Further, the “effect of RSL3 on mGSH upon Ferrostatin-1 treatment” value in the assay with hUC-MSCs [1] (hUC-MSCs treated with RSL3 (FIG. 33)) is on record as “disappeared”.
